Experimental data from EP4548971A1, “1,4-BENZOTHIAZEPINES AND RELATED COMPOUNDS WITH CYCLOPROPANOL GROUPS AS MULTI-TARGETED DRUGS” (Georg-August-Universität Göttingen Stiftung Öffentlichen …, priority 2023, dated 2025).
Entries after “also recorded” stand apart in the source; their conditions may differ.

How the values were obtained:
HL-1 cardiac cells = assay: CytoTox-Glo cytotoxicity assay (cell viability); type: cell-based; settings: CytoTox-Glo assay in 100 µM solutions after 24 h incubation
Experimental: Cell viability was assessed using CytoTox-Glo™ Cytotoxicity Assay according to the manufacturing procedure (Promega GmbH). Briefly, HL-1 cardiac cells were cultivated for 24 h in black-walled, clear-bottom 96-well micro-plates (Corning) covered with fibronectin in DMEM, containing different concentrations of the tested compound (10,000 cells/well). Luminescence of a luminogenic peptide substrate was measured before and after addition of the lysis reagent (digitonin). The viable cell contribution was determined by a subtractive method. 0.1% DMSO treated cell were taken as a control.
The membrane permeability of the derivatives was determined using cell-free transport models (PermeaPad®, innoME GmbH), and permeability rates (Pe), which are a measure of how fast a compound can cross a membrane, were established (Table 1).

SERCA2 = molecular target: T1, SERCA2 (Homo sapiens, UniProt P16615); assay: NADH-coupled ATPase assay on microsomal membrane vesicles from HEK-293T cells (HEK-293 ER); type: biochemical; parameters: key to SERCA2a HEK ER effect class: +++: a strong effect, comparable to or greater than that of a known compounds at a given concentration (25 µM in RyR2 R-CEPIA1er assay, 10 µM in caffeine assay and on microsomal membrane vesicles); ++: moderate effect; +: observable effect; -: no effect; settings: for SERCA2a HEK ER effect class: 10 µM on microsomal membrane vesicles; for effect on SERCA2 ATPase activity, in words: microsomes from HEK-293 ER, 10 µM (1 µM for 14b), vs. 0.1 % DMSO
T1 construct: endogenous in cells; host or cells: HEK-293T cells, microsomal membrane vesicles
T1 sequence (P16615 whole entry): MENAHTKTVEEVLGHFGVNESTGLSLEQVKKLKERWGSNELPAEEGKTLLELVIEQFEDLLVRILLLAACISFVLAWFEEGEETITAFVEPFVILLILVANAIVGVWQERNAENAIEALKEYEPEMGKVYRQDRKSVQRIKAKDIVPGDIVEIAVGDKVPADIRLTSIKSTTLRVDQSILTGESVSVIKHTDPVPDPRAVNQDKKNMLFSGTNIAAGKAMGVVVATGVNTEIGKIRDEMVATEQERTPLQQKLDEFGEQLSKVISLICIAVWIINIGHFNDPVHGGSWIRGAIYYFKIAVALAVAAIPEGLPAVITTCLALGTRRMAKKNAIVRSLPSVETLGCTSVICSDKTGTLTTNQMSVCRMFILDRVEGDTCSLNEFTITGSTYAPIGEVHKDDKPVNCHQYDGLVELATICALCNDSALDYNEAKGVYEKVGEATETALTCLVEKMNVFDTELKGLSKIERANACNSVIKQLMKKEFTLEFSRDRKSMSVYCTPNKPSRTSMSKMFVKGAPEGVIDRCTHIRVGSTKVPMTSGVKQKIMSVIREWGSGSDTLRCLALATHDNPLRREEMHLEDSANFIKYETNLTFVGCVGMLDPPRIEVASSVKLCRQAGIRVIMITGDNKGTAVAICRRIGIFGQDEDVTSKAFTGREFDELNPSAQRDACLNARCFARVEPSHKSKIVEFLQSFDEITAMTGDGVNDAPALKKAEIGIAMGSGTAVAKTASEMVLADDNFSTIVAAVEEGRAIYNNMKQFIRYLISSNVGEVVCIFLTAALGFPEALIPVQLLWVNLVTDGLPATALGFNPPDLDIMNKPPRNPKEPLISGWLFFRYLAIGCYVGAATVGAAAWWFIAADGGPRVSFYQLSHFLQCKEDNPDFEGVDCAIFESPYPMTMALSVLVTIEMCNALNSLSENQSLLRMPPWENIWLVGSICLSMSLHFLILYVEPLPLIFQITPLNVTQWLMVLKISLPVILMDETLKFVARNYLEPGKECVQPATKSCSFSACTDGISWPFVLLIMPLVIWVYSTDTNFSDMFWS
Experimental: Isolation of microsomal membrane vesicles from HEK-293T cells (HEK-293 ER) was performed according to Stewart et al.^61 HEK-293T cells were harvested with Trypsin/EDTA, washed twice with ice-cold PBS containing protease inhibitor cocktail (cOmplete™, Roche, Mannheim, Germany) and centrifuged 800 × g for 5 min. The pellet was resuspended in ice-cold lysis buffer (1 mM EDTA, 10 mM HEPES, cOmplete, pH 7.4) and incubated on ice for 20 minutes. After the cells were homogenized with a tight fitting Dounce homogenizer (10-20 strokes), an equal volume of restoration buffer (500 mM sucrose, 10 mM HEPES, cOmplete, pH 7.2) was added and the cells were homogenized again (10-20 strokes). The homogenate was centrifuged at 10000 × g for 20 min at 4° C. The supernatant was collected and centrifuged again for another 2 hours (100000 × g at 4° C). Then the pellet was carefully resuspended in resuspension buffer (250 mM sucrose, 10 mM HEPES, cOmplete, pH 7.2) on ice by pipetting the solution up and down until fully dissolved. The obtained solution was diluted to a protein concentration of 15-20 µg/µl with the resuspension buffer, the aliquots were snap frozen in liquid nitrogen and stored at - 80 °C until usage.
To determine whether new compounds could increase the SERCA2a activity, HEK-293 microsomes (40 - 150 µg of total protein) or mouse ventricular microsomes (1 - 20 µg of total protein) were diluted in 100 µl of the assay buffer used for measurement of SERCA activity (described below) and incubated at room temperature for 5 minutes prior to the experiments. The measurements of SERCA2a activity were made at 28 °C by using a NADH -coupled ATPase assay. Briefly, the assay buffer contained 60 mM MOPS, 120 mM KCI, 6 mM MgCl2, 1 mM EGTA, 5 mM NaN3, 0.5 mM phosphoenolpyruvate and 1.5 mM CaCl2, pH 7.0. Before the reaction was started by the injection of […] ATP (resulting in 2 mM final concentration in the well), 5 units/mL of both lactate dehydrogenase and pyruvate kinase, 0.5 mM NADH, and 1 µM Ca^2+ ionophore A-23187 (Sigma, C-7522) were added to the diluted sample with or without the tested compound. The 1.5 mM Ca/EGTA buffer has a free Ca^2+ concentration of about 200 µM. The NADH fluorescence decrease was recorded each 2 s for 10 min course on a multiwell plate reader TECAN Spark 20M in 96-well glass bottom plates (MatTek Corporation; Cat. No. PBK96G-1.5-5-F). Fluorescence was evoked by 380 nm excitation wavelength and collected in a bottom-read mode at 425 nm. Exposure - 30 flashes, excitation bandwidth - 10 nm, emission bandwidth - 10 nm. ATP was injected at 30 s. […] The data were analyzed with computer software GraphPad Prism version 8.3.1 (GraphPad Software, Inc.). The difference in signal decrease with and without microsomes was taken as an indicator for the additional ATPase activity performed by SERCA2a. The obtained values for maximal SERCA2a activity were normalized for total protein concentration. Maximal SERCA2a activity values are reported as percentages of control (0.1% DMSO) values. Microsomal samples that were kept on ice until usage and set to 100%.
In an NADH assay, the change in NADH coenzyme fluorescence reflects the level of the consumption of ATP, which can be taken as an indicator of SERCA2 activity [G. B. Warren, P. A. Toon, N. J. Birdsall, A. G. Lee, J. C. Metcalfe, Reconstitution of a calcium pump using defined membrane components. Proc. Natl. Acad. Sci. U.S.A. 1974, 71, 622 - 626]. ATP hydrolysis by SERCA2 is required to pump calcium ions into the SER. A higher rate of ATP hydrolysis corresponds to enhanced SERCA2 ATPase activity that leads to a greater pumping of calcium ions into the SR.
The rate of NADH oxidation, which is coupled to ATP hydrolysis, was observed by measuring changes in NADH intrinsic fluorescence over time after ATP injection into microsomal membranes enriched in SER vesicles isolated from mouse heart ventricles (mouse SER) and ER vesicles from HEK-293T cells (HEK-293 ER). […]

SMILES | Viability (HL-1 cardiac cells) [%] | SERCA2a HEK ER effect class (SERCA2) | effect on SERCA2 ATPase activity, in words (SERCA2) | EC50 (SERCA2; ATPase activity, range after the semicolon is not explained, read-out: SERCA2a HEK ER (EC50)) [nM]
COc1ccc2c(c1)CN(C(=O)C(=O)O)CCS2 [Compound S36, reference compound] | 94 |  |  | 
COc1ccc2c(c1)CN(Cc1ccc(C(=O)O)cc1)CCS2 [ARM210, reference compound] | 90 | + | significant activation of SERCA2 ATPase | 
COc1ccc2c(c1)CN(CCCCN(CCCCC1(O)CC1)CCCCC1(O)CC1)CCS2 [Compound 14a, 1,1'-(((4-(7-Methoxy-2,3-dihydrobenzo[1,4-f]thiazepin-4(5H)-yl)butyl)azanediyl)bis(butane-4,1-diyl))bis(cyclopropan-1-ol)] | 80 | ++ |  | 16
COc1ccc(OCCCNCCCCC2(O)CC2)cc1 [Compound 13b, 1-(4-((3-(4-methoxyphenoxy)propyl)amino)butyl)cyclopropan-1-ol] | 100 | - |  | 
COc1ccc(SCCCNCCCCC2(O)CC2)cc1 [Compound 13c, 1-(4-((3-((4-Methoxyphenyl)thio)propyl)amino)butyl)cyclopropan-1-ol] | 73 | + | significant activation of SERCA2 ATPase | 
COc1ccc(SCCCN(CCCCC2(O)CC2)CCCCC2(O)CC2)cc1 [Compound 14c, 1,1'-(((3-((4-Methoxyphenyl)thio)propyl)azanediyl)bis(butane-4,1-diyl))bis(cyclopropan-1-ol)] | 90 | + |  | 
COc1ccc2c(c1)CN(CCCCC1(O)CC1)CCS2 [Compound 13d, 1-(4-(7-methoxy-2,3-dihydrobenzo[1,4-f]thiazepin-4(5H)-yl)butyl)cyclopropan-1-ol] | 95 | + | significant activation of SERCA2 ATPase; also recorded: slight | 
COc1ccc2c(c1)CN(CCCCNCCCCC1(O)CC1)CCS2 [Compound 13a, 1-(4-((4-(7-Methoxy-2,3-dihydrobenzo[1,4-f]-thiazepin-4(5H)-yl)butyl)amino)butyl)cyclopropan-1-ol] | 84 | - | did not evoke significant increase in ATPase activity; also recorded: could not detect SERCA2 activation | 
